Test system: Plasmopara viticola
Assay: Activity against Peronospora in grape vines caused by Plasmopara viticola (protective spray, potted vines)
Assay type: in vivo
Conditions: individual active ingredient, vine cultivar Müller-Thurgau
Procedure: The active ingredients, separately or together, are formulated as a 10% emulsion in a mixture of 63% by weight of cyclohexanone and 27% by weight of emulsifier, and diluted with water to the desired concentration.
Evaluation is carried out by determining the infected leaf areas in percent. These percentages are converted into efficacies. The efficacy (W) is calculated as follows using Abbot's formula: […]
α corresponds to the fungal infection of the treated plants in % and β corresponds to the fungal infection of the untreated (control) plants in % An efficacy of 0 means that the infection level of the treated plants corresponds to that of the untreated control plants; an efficacy of 100 means that the treated plants were not infected.
The expected efficacies of the mixtures of the active ingredients were determined using Colby's formula [R. S. Colby, Weeds 15, 20-22 (1967)] and compared with the observed efficacies.
E=x+y−x·y/100 Colby's formula
E expected efficacy, expressed in % of the untreated control, when using the mixture of the active ingredients A and B at the concentrations a and b […]
X efficacy, expressed in % of the untreated control, when using active ingredient A at a concentration of a […]
Y efficacy, expressed in % of the untreated control, when using active ingredient B at a concentration of b […]
Activity Against Peronospora in Grape Vines Caused by Plasmmopara viticola […]
Leaves of potted vines of the cultivar “Müller-Thurgau” were sprayed to runoff point with an aqueous preparation of active ingredient which had been prepared using a stock solution comprising 10% of active ingredient, 85% of cyclohexanone and 5% of emulsifier. The next day, the undersides of the leaves were inoculated with an aqueous zoospore suspension of Plasmopara viticola. The vines were then placed firstly for 48 hours in a water-vapor-saturated chamber at 24° C. and then for 5 days in a greenhouse at 20-30° C. After this period of time, the plants were again placed in a moist chamber for 16 hours to accelerate the sporangiophore eruption. The extent to which the undersides of the leaves had been infected was then determined visually.

Compound: Cc1ccc(-c2c(Cl)nc(C#N)n2S(=O)(=O)N(C)C)cc1 [cyazofamid]
- Efficacy in % of the untreated control (1 ppm in the spray liquor): 73%
- Efficacy in % of the untreated control (4 ppm in the spray liquor): 79%
- Efficacy in % of the untreated control (8 ppm in the spray liquor): 84%
- Efficacy in % of the untreated control (16 ppm in the spray liquor): 89%
